Source: patent US9428519B2, “Acylated derivative of homoharringtonine, preparation method therefor, and application thereof” (HANGZHOU BENSHENG PHARMACEUTICAL CO., LTD., priority 2011, dated 2016)
≈ marks a conversion by molar mass, not a printed value.

Key:
[1] = tested on: RPMI8226 (multiple myeloma); assay: MTT growth inhibition of multiple myeloma cells, 72 h; assay type: cell-based, human
Procedure, shortened: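 Growth inhibition read by MTT after 72 h compound exposure (37 °C, 5% CO2) of 6000 RPMI8226 cells per well in 1640 medium plus 10% fetal bovine serum. Viability expressed against untreated cells (100%), from which the 72 h IC50 was derived.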

[2] = tested on: Huh7 (human liver cancer cell); assay: MTT growth inhibition of human solid tumor cells, 72 h; assay type: cell-based
Procedure, shortened: (§1)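 First, 4000 tumour cells per well are plated in DMEM high glucose containing 10% fetal bovine serum and kept 24 h at 37° C. Next, test derivatives are mixed in at different concentrations for a further 72 h. Finally, MTT measures viable cells against an untreated 100% control.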

[3] = tested on: SK-OV-3 (ovarian cancer cell); assay: as above; assay type: cell-based
Procedure, shortened: as §1

PC-3 (prostate cancer) = assay: as above; assay type: cell-based; settings: MTT
Procedure, shortened: as §1

[4] = tested on: CaES-17 (esophageal cancer cell); assay: as above; assay type: cell-based
Procedure, shortened: as §1

[5] = tested on: Hela (human cervical cancer cell); assay: as above; assay type: cell-based; settings: MTT
Procedure, shortened: as §1

[6] = tested on: PANC-1 (pancreatic cancer); assay: as above; assay type: cell-based
Procedure, shortened: as §1

[7] = tested on: Becap37 (human breast cancer cell); assay: as above; assay type: cell-based
Procedure, shortened: as §1

[8] = tested on: Hep-2 (laryngeal carcinoma); assay: as above; assay type: cell-based
Procedure, shortened: as §1

[9] = tested on: U87 MG (malignant glioma cell); assay: as above; assay type: cell-based
Procedure, shortened: as §1

MG63 (osteosarcoma) = assay: as above; assay type: cell-based
Procedure, shortened: as §1

[10] = tested on: CNE (nasopharyngeal carcinoma cell); assay: as above; assay type: cell-based; settings: MTT
Procedure, shortened: as §1

[11] = tested on: RKO (human colon adenocarcinoma cell); assay: as above; assay type: cell-based; settings: MTT
Procedure, shortened: as §1

A549 (human lung cancer) = assay: as above; assay type: cell-based
Procedure, shortened: as §1

[12] = tested on: MGC 803 (human gastric cancer cell); assay: as above; assay type: cell-based
Procedure, shortened: as §1

[13] = tested on: Jurkat (acute lymphoblastic leukemia, ALL); assay: MTT growth inhibition of leukemia cells, 72 h; assay type: cell-based, human
Procedure, shortened: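 Growth inhibition of the Jurkat ALL line was measured by MTT after 72 hours of compound exposure at 37° C. under 5% CO2. Wells of a 96-well plate held 6000 cells in 1640 medium plus 10% fetal bovine serum; untreated controls defined 100% viability, and inhibitory concentrations were derived from percent viability.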

[14] = tested on: H9 (acute lymphoblastic leukemia, ALL); assay: MTT growth inhibition of leukemia cells, 72 h; assay type: cell-based, human; settings: MTT
Procedure, shortened: (§2)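 Growth inhibition is scored by MTT after a 72 h exposure at 37 °C in 5% CO2, with cells plated at 6000 per well in RPMI 1640 containing 10% fetal bovine serum. IC50 comes from viability relative to untreated cells.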

[15] = tested on: Kasumi-1 (acute myeloid leukemia M2 type, AML-M2); assay: MTT growth inhibition of leukemia cells, 72 h; assay type: cell-based, human
Procedure, shortened: as §2

[16] = tested on: K562/adr (drug-resistant, chronic myeloid leukemia, CML); assay: MTT growth inhibition of leukemia cells, 72 h; assay type: cell-based, human; settings: MTT
Procedure, shortened: as §2

[17] = tested on: NB4 (acute promyelocytic leukemia, AML); assay: MTT growth inhibition of leukemia cells, 72 h; assay type: cell-based, human; settings: MTT
Procedure, shortened: as §2

COC(=O)C[C@@](CCCC(C)(C)OC(=O)c1ccccc1)(OC(=O)c1ccccc1)C(=O)O[C@@H]1C(OC)=C[C@]23CCCN2CCc2cc4c(cc2[C@H]13)OCO4 [BS-HH-0732]
IC50 RPMI8226 ([1]; MTT): 1.15 µg/mL (≈ 1.53 µM)
IC90 RPMI8226 ([1]; MTT): 3.84 µg/mL (≈ 5.09 µM)
IC50 Huh7 [2]: 4.8 µg/mL (≈ 6.37 µM)
IC90 Huh7 [2]: 14.5 µg/mL (≈ 19.2 µM)
IC50 SK-OV-3 ([3]; MTT): 6.71 µg/mL (≈ 8.9 µM)
IC90 SK-OV-3 ([3]; MTT): >16 µg/mL
IC50 PC-3 (PC-3 (prostate cancer)): 3.97 µg/mL (≈ 5.27 µM)
IC90 PC-3 (PC-3 (prostate cancer)): 16 µg/mL (≈ 21.2 µM)
IC50 CaES-17 [4]: 3.93 µg/mL (≈ 5.21 µM)
IC90 CaES-17 [4]: 16 µg/mL (≈ 21.2 µM)
IC50 Hela [5]: 2.61 µg/mL (≈ 3.46 µM)
IC90 Hela [5]: 8.37 µg/mL (≈ 11.1 µM)
IC50 PANC-1 ([6]; MTT): 5.8 µg/mL (≈ 7.69 µM)
IC90 PANC-1 ([6]; MTT): 16 µg/mL (≈ 21.2 µM)
IC50 Becap37 [7]: 2.9 µg/mL (≈ 3.85 µM)
IC90 Becap37 [7]: 12.7 µg/mL (≈ 16.8 µM)
IC50 Hep-2 [8]: 3.46 µg/mL (≈ 4.59 µM)
IC90 Hep-2 [8]: >16 µg/mL
IC50 U87 MG [9]: 2 µg/mL (≈ 2.65 µM)
IC90 U87 MG [9]: 8.54 µg/mL (≈ 11.3 µM)
IC50 MG 63 (MG63 (osteosarcoma); MTT): 1.34 µg/mL (≈ 1.78 µM)
IC90 MG 63 (MG63 (osteosarcoma); MTT): 9.88 µg/mL (≈ 13.1 µM)
IC50 CNE [10]: 3.91 µg/mL (≈ 5.19 µM)
IC90 CNE [10]: >16 µg/mL
IC50 RKO [11]: 1.4 µg/mL (≈ 1.86 µM)
IC90 RKO [11]: 5.24 µg/mL (≈ 6.95 µM)
IC50 A549 (A549 (human lung cancer)): 5.4 µg/mL (≈ 7.16 µM)
IC90 A549 (A549 (human lung cancer)): >16 µg/mL
IC50 MGC 803 [12]: 2.7 µg/mL (≈ 3.58 µM)
IC90 MGC 803 [12]: 9.92 µg/mL (≈ 13.2 µM)
IC50 Jurkat [13]: 1.4 µg/mL (≈ 1.86 µM)
IC90 Jurkat [13]: 6.4 µg/mL (≈ 8.49 µM)
IC50 H9 [14]: 1.3 µg/mL (≈ 1.72 µM)
IC90 H9 [14]: 3.9 µg/mL (≈ 5.17 µM)
IC50 Kasumi-1 ([15]; MTT): 1.35 µg/mL (≈ 1.79 µM)
IC90 Kasumi-1 ([15]; MTT): 3.56 µg/mL (≈ 4.72 µM)
IC50 K562/adr [16]: 2.5 µg/mL (≈ 3.32 µM)
IC90 K562/adr [16]: 6.5 µg/mL (≈ 8.62 µM)
IC50 NB4 [17]: 1.19 µg/mL (≈ 1.58 µM)
IC90 NB4 [17]: 2.47 µg/mL (≈ 3.28 µM)

COC(=O)C[C@](O)(CCCC(C)(C)O)C(=O)O[C@@H]1C(OC)=C[C@]23CCCN2CCc2cc4c(cc2[C@H]13)OCO4 [HHT, O-3-[(2R)-2,6-dihydroxy-2-(2′-methoxy-2′-oxoethyl)-6-methylheptanoyl]cephalotaxine, reference compound]
IC50 ([1]; Homo sapiens, RPMI-8226, MTT): 0.006 µg/mL (≈ 0.011 µM)
IC90 ([1]; Homo sapiens, RPMI-8226, MTT): 0.027 µg/mL (≈ 0.0495 µM)
IC50 ([2]; Homo sapiens, Huh-7): 0.004 µg/mL (≈ 0.00733 µM)
IC90 ([2]; Homo sapiens, Huh-7): 0.049 µg/mL (≈ 0.0898 µM)
IC50 ([3]; Homo sapiens, SK-OV-3, MTT): 0.09 µg/mL (≈ 0.165 µM)
IC90 ([3]; Homo sapiens, SK-OV-3, MTT): > 16 µg/mL
IC50 (PC-3 (prostate cancer); Homo sapiens): 0.08 µg/mL (≈ 0.147 µM)
IC90 (PC-3 (prostate cancer); Homo sapiens): > 16 µg/mL
IC50 ([4]; Homo sapiens, CaEs17): 0.037 µg/mL (≈ 0.0678 µM)
IC90 ([4]; Homo sapiens, CaEs17): > 16 µg/mL
IC50 ([5]; Homo sapiens, HeLa): 0.019 µg/mL (≈ 0.0348 µM)
IC90 ([5]; Homo sapiens, HeLa): 16 µg/mL (≈ 29.3 µM)
IC50 ([6]; Homo sapiens, PANC-1, MTT): 0.035 µg/mL (≈ 0.0641 µM)
IC90 ([6]; Homo sapiens, PANC-1, MTT): > 16 µg/mL
IC50 ([7]; Homo sapiens): 0.01 µg/mL (≈ 0.0183 µM)
IC90 ([7]; Homo sapiens): 11.6 µg/mL (≈ 21.2 µM)
IC50 ([8]; Homo sapiens, HEp-2): 0.014 µg/mL (≈ 0.0257 µM)
IC90 ([8]; Homo sapiens, HEp-2): > 16 µg/mL
IC50 ([9]; Homo sapiens, U-87 MG): 0.004 µg/mL (≈ 0.00733 µM)
IC90 ([9]; Homo sapiens, U-87 MG): 0.018 µg/mL (≈ 0.033 µM)
IC50 (MG63 (osteosarcoma); Homo sapiens, MG-63, MTT): 0.01 µg/mL (≈ 0.0183 µM)
IC90 (MG63 (osteosarcoma); Homo sapiens, MG-63, MTT): 1.2 µg/mL (≈ 2.2 µM)
IC50 ([10]; Homo sapiens): 0.038 µg/mL (≈ 0.0696 µM)
IC90 ([10]; Homo sapiens): > 16 µg/mL
IC50 ([11]; Homo sapiens): 0.003 µg/mL (≈ 0.0055 µM)
IC90 ([11]; Homo sapiens): 0.009 µg/mL (≈ 0.0165 µM)
IC50 (A549 (human lung cancer); Homo sapiens, A549): 0.03 µg/mL (≈ 0.055 µM)
IC90 (A549 (human lung cancer); Homo sapiens, A549): > 16 µg/mL
IC50 ([12]; Homo sapiens, MGC-803): 0.016 µg/mL (≈ 0.0293 µM)
IC90 ([12]; Homo sapiens, MGC-803): 0.2 µg/mL (≈ 0.367 µM)
IC50 ([13]; Homo sapiens, Jurkat): 0.007 µg/mL (≈ 0.0128 µM)
IC90 ([13]; Homo sapiens, Jurkat): ≥ 16 µg/mL
IC50 ([14]; Homo sapiens): 0.02 µg/mL (≈ 0.0367 µM)
IC90 ([14]; Homo sapiens): 0.046 µg/mL (≈ 0.0843 µM)
IC50 ([15]; Homo sapiens, Kasumi 1, MTT): 0.005 µg/mL (≈ 0.00916 µM)
IC90 ([15]; Homo sapiens, Kasumi 1, MTT): 0.024 µg/mL (≈ 0.044 µM)
IC50 ([16]; Homo sapiens, K562/Adr): 0.035 µg/mL (≈ 0.0641 µM)
IC90 ([16]; Homo sapiens, K562/Adr): 0.98 µg/mL (≈ 1.8 µM)
IC50 ([17]; Homo sapiens): 0.006 µg/mL (≈ 0.011 µM)
IC90 ([17]; Homo sapiens): 0.012 µg/mL (≈ 0.022 µM)
